Results as given in patent US8138168B1 (Takeda Pharmaceutical Company Limited, priority 2007, dated 2012).

Target: T1, Recombinant human renin (Homo sapiens, UniProt P00797)
T1 construct: isolate the active form (residues 67-406); made in house; host or cells: FreeStyle 293-F cells (transient expression of pcDNA3.1(+)/hREN)
T1 sequence (P00797 67-406): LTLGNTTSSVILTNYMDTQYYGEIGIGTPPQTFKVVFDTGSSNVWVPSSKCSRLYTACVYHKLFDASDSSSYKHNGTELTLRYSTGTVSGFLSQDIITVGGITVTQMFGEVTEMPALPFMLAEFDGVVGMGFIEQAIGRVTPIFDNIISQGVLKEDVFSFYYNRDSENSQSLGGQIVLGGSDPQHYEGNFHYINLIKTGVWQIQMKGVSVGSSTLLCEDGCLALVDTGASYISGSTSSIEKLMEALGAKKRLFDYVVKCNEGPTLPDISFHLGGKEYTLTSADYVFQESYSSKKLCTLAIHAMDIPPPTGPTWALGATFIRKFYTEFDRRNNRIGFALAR
Assay: In vitro enzymatic activity assay of renin inhibitors (fluorogenic peptide substrate)
Assay type: biochemical
Conditions: for IC50: read-out: IC50 of Exemplified Compounds Against Renin; for Eutomer / distomer designation of the separated stereoisomers: isomers separated by preparative SFC, more or less active isomer as renin inhibitor
Method in brief: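 Recombinant human renin (3 nM final) pre-incubated 10 min at 37 °C with compounds in pH 7.4 Hepes/EDTA/DTT/0.1 mg/mL BSA/Brij35 buffer (optionally plus 2% BSA), 5% DMSO final; fluorogenic QXL520/HiLyteFluo488 peptide substrate added.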

Row | Compound | IC50 [nM] | Eutomer / distomer designation of the separated stereoisomers
1 | COCCCn1c([C@@H]2CCCN(C(=O)C[C@H](N)Cc3ccc(-c4ccc(C(=O)NCCO)cc4Cl)cc3)C2)nc2ccccc21 [Compound 192, 4′-((R)-2-amino-4-((R)-3-(1-(3-methoxypropyl)-1H-benzo[d]imidazol-2-yl)piperidin-1-yl)-4-oxobutyl)-2-chloro-N-(2-hydroxyethyl)biphenyl-4-carboxamide] | < 100 | 
2 | COCCCn1c([C@@H]2CCCN(C(=O)C[C@H](N)Cc3ccc(Cl)c(Cl)c3)C2)nc2ccccc21 [Compound 77, (R)-3-amino-4-(3,4-dichlorophenyl)-1((R)-3-(1-(3-methoxypropyl)-1H-benzo[d]imidazol-2-yl)piperidin-1-yl)butan-1-one] | 100 to 1000 | 
3 | COCCCn1c([C@@H]2CCCN(C(=O)C[C@H](N)Cc3ccc(-c4cn(C)c(=O)n(C)c4=O)cc3)C2)nc2ccccc21 [Compound 205, 5-(4-((R)-2-amino-4-((R)-3-(1-(3-methoxypropyl)-1H-benzo[d]imidazol-2-yl)piperidin-1-yl)-4-oxobutyl)phenyl)-1,3-dimethylpyrimidine-2,4(1H,3H)-dione] | < 100 | 
4 | COCCCn1c([C@@H]2CCCN(C(=O)C[C@H](N)Cc3ccc(N4CCCC4=O)cc3)C2)nc2ccccc21 [Compound 209, 1-(4-((R)-2-amino-4-((R)-3-(1-(3-methoxypropyl)-1H-benzo[d]imidazol-2-yl)piperidin-1-yl)-4-oxobutyl)phenyl)pyrrolidin-2-one] | 100 to 1000 | 
5 | COCCCn1c([C@@H]2CCCN(C(=O)C[C@H](N)CNC(=O)c3ccc(-c4ccc(Cl)cc4Cl)o3)C2)nc2ccccc21 [Compound 267, N-((S)-2-amino-4-((R)-3-(1-(3-methoxypropyl)-1H-benzo[d]imidazol-2-yl)piperidin-1-yl)-4-oxobutyl)-5-(2,4-dichlorophenyl)furan-2-carboxamide] | 100 to 1000 | 
6 | COCCCn1c([C@]2(O)CCCN(C(=O)C[C@H](N)Cc3ccc(Cl)cc3)C2)nc2ccccc21 [Compound 247, (R)-3-amino-4-(4-chlorophenyl)-1-((S)-3-hydroxy-3-(1-(3-methoxypropyl)-1H-benzo[d]imidazol-2-yl)piperidin-1-yl)butan-1-one] | > 1000 | Distomer
7 | NC1(C(=O)N2CCCC(c3nc4ccccc4[nH]3)C2)CC1 (stereo not drawn) [Compound 63, (3-(1H-benzo[d]imidazol-2-yl)piperidin-1-yl)(1-aminocyclopropyl)methanone] | > 1000 | 
8 | CC(C)C[C@H](N)C(=O)N1CCCC(c2nc3ccccc3[nH]2)C1 (stereo partly drawn) [Compound 46, (2S)-1-(3-(1H-benzo[d]imidazol-2-yl)piperidin-1-yl)-2-amino-4-methylpentan-1-one] | > 1000 | 
9 | O=C(NC1CCCCC1)N1CCCC(c2nc3ccccc3[nH]2)C1 (stereo not drawn) [Compound 10, 3-(1H-benzo[d]imidazol-2-yl)-N-cyclohexylpiperidine-1-carboxamide] | > 1000 | 
10 | COCCCn1c([C@@H]2CCCN(C(=O)C[C@H](N)Cc3cccc(Cl)c3)C2)nc2ccccc21 [Compound 79, (R)-3-amino-4-(3-chlorophenyl)-1((R)-3-(1-(3-methoxypropyl)-1H-benzo[d]imidazol-2-yl)piperidin-1-yl)butan-1-one] | 100 to 1000 | 
11 | COCCCn1c([C@@H]2CCCN(C(=O)C[C@H](N)Cc3ccc(-c4ccc(C#N)cc4)cc3)C2)nc2ccccc21 [Compound 164, 4′-((R)-2-amino-4-((R)-3-(1-(3-methoxypropyl)-1H-benzo[d]imidazol-2-yl)piperidin-1-yl)-4-oxobutyl)biphenyl-4-carbonitrile] | < 100 | 
12 | COCCCn1c([C@@H]2CCCN(C(=O)C[C@H](N)Cc3ccc(-c4ccccc4Cl)cc3)C2)nc2ccccc21 [Compound 155, (R)-3-amino-4-(2′-chlorobiphenyl-4-yl)-1-((R)-3-(1-(3-methoxypropyl)-1H-benzo[d]imidazol-2-yl)piperidin-1-yl)butan-1-one] | < 100 | 
13 | N[C@@H](Cc1ccccn1)C(=O)N1CCCC(c2nc3ccccc3[nH]2)C1 (stereo partly drawn) [Compound 62, (2S)-1-(3-(1H-benzo[d]imidazol-2-yl)piperidin-1-yl)-2-amino-3-(pyridin-2-yl)propan-1-one] | > 1000 | 
14 | CC(C)(C)[C@H](N)C(=O)N1CCCC(c2nc3ccccc3[nH]2)C1 (stereo partly drawn) [Compound 56, (2S)-1-(3-(1H-benzo[d]imidazol-2-yl)piperidin-1-yl)-2-amino-3,3-dimethylbutan-1-one] | > 1000 | 
15 | COCCCn1c([C@@H]2CCCN(C(=O)C[C@H](N)Cc3ccc(-c4ccc(N5CCOCC5)nc4)cc3)C2)nc2ccccc21 [Compound 135, (R)-3-amino-1-((R)-3-(1-(3-methoxypropyl)-1H-benzo[d]imidazol-2-yl)piperidin-1-yl)-4-(4-(6-morpholinopyridin-3-yl)phenyl)butan-1-one] | < 100 | 
16 | COCCCn1c([C@@H]2CCCN(C(=O)C[C@H](N)Cc3ccc4ccccc4c3)C2)nc2cc([N+](=O)[O-])ccc21 [Compound 115, (R)-3-arni no-1-((R)-3-(1-(3-methoxypropyl)-5-nitro-1H-benzo[d]imidazol-2-yl)piperidin-1-yl)-4-(naphthalen-2-yl)butan-1-one] | 100 to 1000 | 

Next, values leading:

Row | IC50 [nM] | Eutomer / distomer designation of the separated stereoisomers | Compound
17 | > 1000 |  | COCCCn1c([C@@H]2CCCN(C(=O)[C@@H]3CN(C(=O)c4ccc(OC)cc4)C[C@H]3N)C2)nc2ccccc21 [Compound 394, ((3R,4S)-4-amino-1-(4-methoxybenzoyl)pyrrolidin-3-yl)((R)-3-(1-(3-methoxypropyl)-1H-benzo[d]imidazol-2-yl)piperidin-1-yl)methanone]
18 | < 100 |  | COCCCn1c([C@@H]2CCCN(C(=O)C[C@H](N)Cc3ccc(-c4ccc(N)nc4)cc3)C2)nc2c(F)cccc21 [Compound 452, (R)-3-amino-4-(4-(6-aminopyridin-3-yl)phenyl)-1-((R)-3-(4-fluoro-1-(3-methoxypropyl)-1H-benzo[d]imidazol-2-yl)piperidin-1-yl)butan-1-one]
19 | 100 to 1000 |  | COCCCn1c([C@@H]2CCCN(C(=O)[C@@H]3CN(C(=O)c4cccnc4Oc4ccccc4)C[C@H]3N)C2)nc2ccccc21 [Compound 366, ((3R,4S)-4-amino-1-(2-phenoxynicotinoyl)pyrrolidin-3-yl)((R)-3-(1-(3-methoxypropyl)-1H-benzo[d]imidazol-2-yl)piperidin-1-yl)methanone]
20 | > 1000 |  | COCCCn1c([C@@H]2CCCN(C(=O)[C@@H]3CN(S(=O)(=O)c4ccccc4C#N)C[C@H]3N)C2)nc2ccccc21 [Compound 427, 2-((3S,4R)-3-amino-4-((R)-3-(1-(3-methoxypropyl)-1H-benzo[d]imidazol-2-yl)piperidine-1-carbonyl)pyrrolidin-1-ylsulfonyl)benzonitrile]
21 | < 100 |  | COCCCn1c([C@@H]2CCCN(C(=O)C[C@H](N)Cc3ccc(-c4ccc5c(c4)CC(=O)N5)cc3)C2)nc2c(F)cccc21 [Compound 458, 5-(4-((R)-2-amino-4-((R)-3-(4-fluoro-1-(3-methoxypropyl)-1H-benzo[d]imidazol-2-yl)piperidin-1-yl)-4-oxobutyl)phenyl)indolin-2-one]
22 | 100 to 1000 |  | COCCCn1c([C@@H]2CCCN(C(=O)C[C@H](N)CNC(=O)c3ccc(-c4cc(Cl)cc(Cl)c4)o3)C2)nc2ccccc21 [Compound 295, N-((S)-2-amino-4-((R)-3-(1-(3-methoxypropyl)-1H-benzo[d]imidazol-2-yl)piperidin-1-yl)-4-oxobutyl)-5-(3,5-dichlorophenyl)furan-2-carboxamide]
23 |  | Eutomer | (R)-3-amino-4-(4-chlorophenyl)-1-((S)-3-hydroxy-3-(1-(3-methoxypropyl)-1H-benzo[d]imidazol-2-yl)piperidin-1-yl)butan-1-one [Compound 247]
24 | 100 to 1000 |  | CC(=O)NCCn1c([C@@H]2CCCN(C(=O)C[C@H](N)Cc3ccc(-c4ccc5c(c4)NC(=O)CO5)cc3)C2)nc2ccccc21 [Compound 469]
25 | 100 to 1000 |  | COCCCn1c([C@@H]2CCCN(C(=O)[C@@H]3CN(S(=O)(=O)c4c(Cl)cc(Br)cc4Cl)C[C@H]3N)C2)nc2ccccc21 [Compound 339]
26 | 100 to 1000 |  | COCCCn1c([C@@H]2CCCN(C(=O)C[C@H](N)CNS(=O)(=O)c3ccccc3Cl)C2)nc2ccccc21 [Compound 306, N-((S)-2-amino-4-((R)-3-(1-(3-methoxypropyl)-1H-benzo[d]imidazol-2-yl)piperidin-1-yl)-4-oxobutyl)-2-chlorobenzenesulfonamide]
27 | 100 to 1000 |  | COCCCn1c([C@@H]2CCCN(C(=O)C[C@H](N)CNC(=O)c3c(Cl)cccc3Cl)C2)nc2ccccc21 [Compound 289, N-((S)-2-amino-4-((R)-3-(1-(3-methoxypropyl)-1H-benzo[d]imidazol-2-yl)piperidin-1-yl)-4-oxobutyl)-2,6-dichlorobenzamide]
28 | < 100 |  | COCCCn1c([C@@H]2CCCN(C(=O)C[C@H](N)Cc3ccc(-c4ccc5occc5c4)cc3)C2)nc2c(C)cccc21 [Compound 494, (R)-3-amino-4-(4-(benzofuran-5-yl)phenyl)-1-((R)-3-(1-(3-methoxypropyl)-4-methyl-1H-benzo[d]imidazol-2-yl)piperidin-1-yl)butan-1-one]
29 | 100 to 1000 |  | COCCCn1c([C@@H]2CCCN(C(=O)C[C@H](N)CNC(=O)c3ccc(Oc4ccccc4)cc3)C2)nc2ccccc21 [Compound 278, N-((S)-2-amino-4-((R)-3-(1-(3-methoxypropyl)-1H-benzo[d]imidazol-2-yl)piperidin-1-yl)-4-oxobutyl)-4-phenoxybenzamide]
